# Measurements reported in BindingDB's records for doi:10.1080/14756360802608351 (Ataturk University, 2009).
# Molecular target: Serum paraoxonase/arylesterase 1 (Homo sapiens, UniProt P27169)
# Experiment: Paraoxonase Activity Assay
# Details: pH 10.5; 25 °C
# Description: The enzyme assay was based on the estimation of p-nitrophenol at 412nm. The molar extinction coefficient of p-nitrophenol was used to calculate enzyme activity.
# Sequence of Serum paraoxonase/arylesterase 1 (P27169 whole entry): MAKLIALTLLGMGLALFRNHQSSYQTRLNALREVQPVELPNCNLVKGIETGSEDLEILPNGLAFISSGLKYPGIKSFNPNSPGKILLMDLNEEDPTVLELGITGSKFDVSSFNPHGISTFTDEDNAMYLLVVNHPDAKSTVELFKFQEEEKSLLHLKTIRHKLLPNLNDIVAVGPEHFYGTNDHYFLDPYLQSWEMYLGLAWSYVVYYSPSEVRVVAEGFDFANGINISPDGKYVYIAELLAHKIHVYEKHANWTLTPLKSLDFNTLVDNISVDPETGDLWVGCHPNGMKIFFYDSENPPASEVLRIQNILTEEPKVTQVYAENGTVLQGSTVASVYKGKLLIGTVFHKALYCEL
SMILES,IC50 [µM],Ki [µM]
CCCC1CC(C(=O)NC(C(C)O)C2OC(SC)C(O)C(O)C2O)N(C)C1 (stereo not given) [Lincomycine],9640,11100
CN1C(C(=O)Nc2ccccn2)=C(O)c2sc(Cl)cc2S1(=O)=O [Lornoxicam],136,9

# The remaining compounds from weak to strong by IC50, led by results:
IC50 [µM],Ki [µM],SMILES
6230,13000,CC(C(=O)O)c1cccc(C(=O)c2ccccc2)c1 (stereo not given) [2-(3-benzoylphenyl)propanoic acid]
340,306,CN1C(C(=O)Nc2ccccn2)=C(O)c2sccc2S1(=O)=O [Tenoxicam]
195,97,COc1ccc2c(c1)c(CC(=O)O)c(C)n2C(=O)c1ccc(Cl)cc1 [indometacin]
